Laboratory results: ChEMBL document CHEMBL6114992, “Design, synthesis, biological evaluation, and mechanism of action of new pyrazines as anticancer agents in vitro and in vivo” (Bioorg Med Chem, 2025)

How the values were obtained:
Format in all cases: functional, cell-based
[1] = test system: THP-1; assay: Antiproliferative activity against human THP-1 cells assessed as inhibition of cell growth incubated for 72 hrs by MTT assay; details: THP-1, 72 h
[2] = test system: KG-1; assay: Antiproliferative activity against human KG-1 cells assessed as inhibition of cell growth incubated for 72 hrs by MTT assay; details: KG-1, 72 h
[3] = test system: U-937; assay: Antiproliferative activity against human U-937 cells assessed as inhibition of cell growth incubated for 72 hrs by MTT assay; details: U-937, 72 h
[4] = test system: SK-OV-3; assay: Antiproliferative activity against human SK-OV-3 cells assessed as inhibition of cell growth incubated for 72 hrs by MTT assay; details: SK-OV-3, 72 h
[5] = Antiproliferative activity against human SK-OV-3/Taxol cells assessed as inhibition of cell growth incubated for 72 hrs by MTT assay; details: SK-OV-3, 72 h

| SMILES | IC50 [1] [µM] | IC50 [3] [µM] | IC50 [4] [µM] | IC50 [2] [µM] | IC50 [5] [µM] |
| --- | --- | --- | --- | --- | --- |
| Cc1nccnc1C(=O)/C=C/c1ccc[nH]1 | 5.72 | 6.21 | 4.81 | 7.15 | 5.38 |
| CCc1nccnc1C(=O)/C=C/c1ccccc1[N+](=O)[O-] | 1.5 | 1.46 | 2.49 | 3.68 | 4.12 |
| Cc1nccnc1C(=O)/C=C/c1cc2ccccc2o1 | 1.9 | 2.93 | 4.63 | 3.3 | 1.74 |
| O=C(/C=C/c1cccc([N+](=O)[O-])c1)c1cnccn1 | 5.29 | 8 | > 50 | 10.3 | > 50 |
| O=C(/C=C/c1cccc(Br)c1)c1cnccn1 | 11 | 8.19 | 13.5 | 23.4 | 17 |
| Cc1nccnc1C(=O)/C=C/c1ccc(C(C)(C)C)cc1 | 27.2 | 18.5 | 16.6 | 44.1 | 14.2 |
| O=C(/C=C/c1cc2ccccc2o1)c1cnccn1 | 13.5 | 10.7 | > 50 | 9.66 | > 50 |
| O=C(/C=C/c1ccccc1N1CCOCC1)c1cnccn1 | 8.39 | 7.58 | 2.43 | 2.13 | 3.04 |
| Cc1nccnc1C(=O)/C=C/c1ccc(C#N)cc1 | 0.72 | 2.08 | 4.49 | 1.01 | 4.63 |
| O=C(/C=C/c1ccc(C(F)(F)F)cc1)c1cnccn1 | 8.3 | 11.9 | 9.72 | 7.87 | 10.4 |
| O=C(/C=C/c1ccc(Cl)cc1)c1cnccn1 | 10.2 | 11.5 | 9.91 | 12.3 | 10.4 |
| O=C(/C=C/c1ccc(F)cc1)c1cnccn1 | > 50 | > 50 | > 50 | > 50 | > 50 |
| O=C(/C=C/c1ccc(-c2ccccc2)cc1)c1cnccn1 | > 50 | 31.8 | 16.6 | > 50 | 16.3 |
| CCc1nccnc1C(=O)/C=C/c1cccc(C)c1 | 7.78 | 6.89 | 4.52 | 10.3 | 5.6 |
| Cc1nccnc1C(=O)/C=C/c1ccc(Br)cc1 | 31.1 | 11.3 | 12.7 | 20.9 | 13.7 |
| Cc1nccnc1C(=O)/C=C/c1ccc(-c2ccccc2)cc1 | 7.63 | 2.38 | 1.66 | 3.25 | 1.67 |
| CCc1nccnc1C(=O)/C=C/c1cccc([N+](=O)[O-])c1 | 1.56 | 1.58 | 3.5 | 2.16 | 2.67 |
| Cc1cccc(/C=C/C(=O)c2nccnc2C)c1 | 5 | 3.37 | 2.37 | 5.43 | 1.55 |
| CSc1ccc(/C=C/C(=O)c2cnccn2)cc1 | 8.37 | 7.06 | 6.48 | 5.56 | 8.03 |
| O=C(/C=C/c1cccc(Cl)c1)c1cnccn1 | 10.3 | 11.5 | 10.9 | 9.97 | 10.6 |
| O=C(/C=C/c1ccccc1)c1cnccn1 | 15.3 | 8.05 | > 50 | 10.6 | > 50 |
| CCc1nccnc1C(=O)/C=C/c1ccc(F)cc1F | 5.71 | 8.02 | 5.24 | 25.7 | 7.97 |

Second part, led by results:

| IC50 [1] [µM] | IC50 [3] [µM] | IC50 [4] [µM] | SMILES | IC50 [2] [µM] | IC50 [5] [µM] |
| --- | --- | --- | --- | --- | --- |
| 8.36 | 7.95 | 6.71 | CCc1nccnc1C(=O)/C=C/c1ccc(OC)c(OC)c1 | 9.45 | 7.92 |
| 2.07 | 1.5 | 4.78 | Cc1nccnc1C(=O)/C=C/c1csc2ccccc12 | 1.54 | 3.28 |
| 6.01 | 3.9 | 4.72 | CSc1ccc(/C=C/C(=O)c2nccnc2C)cc1 | 6.84 | 6.8 |
| 15.5 | 11.6 | 12.1 | O=C(/C=C/c1ccccc1Br)c1cnccn1 | 8.94 | 14.1 |
| 10.1 | 6.18 | > 50 | O=C(/C=C/c1cccs1)c1cnccn1 | 11.9 | > 50 |
| 4.45 | 5.91 | 5.06 | CCc1nccnc1C(=O)/C=C/c1ccccc1Cl | 3.17 | 5.58 |
| 3.19 | 3.39 | 4.29 | CCc1nccnc1C(=O)/C=C/c1cc2c(cc1[N+](=O)[O-])OCO2 | 9.24 | 4.75 |
| > 50 | > 50 | > 50 | CCN(CC)c1ccc(/C=C/C(=O)c2cnccn2)cc1 | > 50 | > 50 |
| 2.23 | 2.46 | 5.62 | Cc1nccnc1C(=O)/C=C/c1cccc([N+](=O)[O-])c1 | 4.76 | 6.38 |
| 1.79 | 5.43 | 5.17 | Cc1nccnc1C(=O)/C=C/c1ccccc1 | 1.64 | 5.04 |
| 10.2 | 15 | 11.2 | CCc1nccnc1C(=O)/C=C/c1ccc(C(C)(C)C)cc1 | 22.5 | 12.2 |
| 16.2 | 23.2 | 11.2 | N#Cc1ccc(/C=C/C(=O)c2cnccn2)cc1 | 15.9 | 12.6 |
| 1.38 | 1.94 | 3.42 | CCc1nccnc1C(=O)/C=C/c1ccc(S(C)(=O)=O)cc1 | 3.64 | 6.19 |
| 12.9 | 17.4 | 17.3 | CCc1nccnc1C(=O)/C=C/c1cc2ccccc2o1 | 22.5 | 16.4 |
| 10.3 | 15.2 | 21.9 | COc1ccc(/C=C/C(=O)c2cnccn2)cc1 | 8.71 | 21.1 |
| 17.6 | 13.5 | 3.33 | Cc1nccnc1C(=O)/C=C/c1ccc(F)cc1F | 6.15 | 2.99 |
| 1.93 | 2.6 | 3.83 | Cc1ccc(/C=C/C(=O)c2nccnc2C)cc1 | 3.83 | 3.3 |
| 15.7 | 23.6 | 31.2 | Cc1ccccc1/C=C/C(=O)c1cnccn1 | 15.2 | 33.7 |
| 11.9 | 11.9 | 3.88 | O=C(/C=C/c1ccccc1F)c1cnccn1 | 9.89 | 6.18 |
| 23.8 | 1.99 | 4.54 | CCc1nccnc1C(=O)/C=C/c1ccccc1 | 3.71 | 5.4 |
| 6.69 | 3.59 | 3.23 | CCc1nccnc1C(=O)/C=C/c1cccc(Br)c1 | 9.32 | 4.7 |
